Test results reported in patent US7307099B2, “4-(1-(sulfonyl)-1h-indol-2-yl)-4-(hydroxy)-cyclohexa-2,5-dienone compounds and analogs thereof as therapeutic agents” (Cancer Research Technology Limited, priority 2002, dated 2007).
Where two headings read alike, the source gives them in different places.

Legend:
[1] = system: 60 human cancer cell lines; assay: NCI in vitro 60 cell panel (48 hour drug exposure); type: cell-based; conditions: for LC50: read-out: Mean log10 LC50 (converted)
Description: (§1) Compounds were tested for in vitro activity (48 hour drug exposure) across 60 human cancer cell lines through the National Cancer Institute (NCl) Developmental Therapies Screening Program (Boyd et al., 1995).

HT29 colon carcinoma = assay: Growth inhibitory assay (MTT, 72 hour exposure), HT29; type: cell-based; conditions: Homo sapiens, HT 29, MTT
Description: (§2) Compounds were prepared as 10 mM top stocks, dissolved in DMSO, and stored at 4° C., protected from light, for a maximum period of 4 weeks. Human derived cell lines (HCT 116, HT29 colon carcinoma) were routinely cultivated at 37° C. in an atmosphere of 5% CO2 in RPMI 1640 medium supplemented with 2 mM L-glutamine and 10% fetal calf serum and subcultured twice weekly to maintain continuous logarithmic growth. Cells were seeded into 96-well microtiter plates at a density of 5×10^3 per well and allowed 24 hours to adhere before drugs were introduced (final concentration 0.1 nM-100 μM, n=8). Serial drug dilutions were prepared in medium immediately prior to each assay. At the time of drug addition and following 72 hour exposure, MTT was added to each well (final concentration 400 µg/mL). Incubation at 37° C. for 4 hr allowed reduction of MTT by mitochondrial dehydrogenase to an insoluble formazan product. Well contents were aspirated and formazan solubilized by addition of DMSO:glycine buffer (pH 10.5) (4:1). Absorbance was measured using an Anthos Labtec systems plate reader at 550 nm, and used as a measure of cell viability; thus cell growth or drug toxicity was determined.

[2] = system: HCT116 colon carcinoma tumour; assay: HCT116 colon carcinoma tumour in tumour-bearing mice; type: in vivo
Description: (§3) The in vivo activity of SIQ-01 was studied. The maximum tolerated dose of SIQ-01 in mice is 30 mg/kg on a daily (×5) schedule. Combination treatment of SIQ-01 and cisplatin was active against the HCT116 colon carcinoma tumour when administered to tumour-bearing mice (15 mg SIC-01/kg administered by intraperitoneal injection on days 1-5 and 8-10; 4 mg cisplatin/kg administered subcutaneously on days 1 and 8), and gave a maximum T/C (Test/Control) of 49%. Treatment with cisplatin alone (same regimen) gave a maximum T/C (Test/Control) of 56%.

[3] = Maximum tolerated dose in mice; conditions: mouse, in vivo, daily (×5) schedule
Description: as §3

HCT 116 colon carcinoma = assay: Growth inhibitory assay (MTT, 72 hour exposure), HCT 116; type: cell-based; conditions: Homo sapiens, HCT 116, MTT
Description: as §2

CAKI-1 (renal) = assay: NCI in vitro 60 cell panel, CAKI-1; type: cell-based; conditions: Homo sapiens, read-out: Most Senstive Cells Lines mean log10 LC50 (converted)
Description: as §1

HCT-116 (colon) = assay: NCI in vitro 60 cell panel, HCT-116; type: cell-based; conditions: Homo sapiens, read-out: Most Senstive Cells Lines mean log10 LC50 (converted)
Description: as §1

ACHN (renal) = assay: NCI in vitro 60 cell panel, ACHN; type: cell-based; conditions: Homo sapiens, read-out: Most Senstive Cells Lines mean log10 LC50 (converted)
Description: as §1

LOX IMVI (melanoma) = assay: NCI in vitro 60 cell panel, LOX IMVI; type: cell-based; conditions: Homo sapiens, read-out: Most Senstive Cells Lines mean log10 LC50 (converted)
Description: as §1

[4] = target: T1, Thioredoxin/Thioredoxin Reductase (Tx/TR) (Homo sapiens, UniProt P10599); assay: Thioredoxin/thioredoxin reductase-catalysed reduction of insulin; type: biochemical; conditions: 30 min at 37° C.
T1 construct: was purified from human placenta as previously described; made in house; host or cells: hTrx: Escherichia coli; TR: purified from human placenta tissue
T1 sequence (P10599 2-105 limits assumed): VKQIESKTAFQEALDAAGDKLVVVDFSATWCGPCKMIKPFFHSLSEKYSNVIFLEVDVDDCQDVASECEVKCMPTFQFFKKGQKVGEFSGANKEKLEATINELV
Description: Assays were performed using methods analogous to those described in Kirkpatrick et al., 1999 and Kunkel et al., 1997.
[…] (specific activity 43.6 μmol NADPH reduced/min/mg protein at 21° C.) was purified from human placenta as previously described (Oblong et al., 1993). Recombinant hTrx was expressed in Escherichia coli and purified as previously described (Gasdaska et al., 1994). The Trx and TR were stored at −20° C. with 5 mM dithiothreitol (DTT) which was removed before use with a desalting column (PDIO, Pharmacla, Uppsala, Sweden).
Microtitre plate colorimetric assays, based on the increase in absorbance at 405 nm which occurs as dithionitrobenzoic acid (DTNB) is reduced by the enzyme-mediated transfer of reducing equivalents from NADPH, were used to measure TR/Trx-dependent insulin-reduction and TR activity (see, e.g., Kunkel et al., 1997).
Thioredoxin reductase/thioredox […] insulin reducing activity was measured in an incubation with a final volume of 60 μL containing 100 mM HEPES buffer, pH 7.2, 5 mM EDTA (HE buffer), 1 mM NADPH, 1.0 μM thioredoxin reductase, 0.8 μM thioredoxin, and 2.5 mg/ml bovine insulin in flat-bottom 96-well microtitre plates. […] The reaction was stopped by the addition of 100 μL of 6 M guanidine HCl, 50 mM Tris, pH 8.0, and 10 mM DTNB, and the absorbance measured at 405 nm.

UO-31 (renal) = assay: NCI in vitro 60 cell panel, UO-31; type: cell-based; conditions: Homo sapiens, read-out: Most Senstive Cells Lines mean log10 LC50 (converted)
Description: as §1

U251 (CNS cancer) = assay: NCI in vitro 60 cell panel, U251; type: cell-based; conditions: Homo sapiens, U-251, read-out: Most Senstive Cells Lines mean log10 LC50 (converted)
Description: as §1

RXF 393 (renal) = assay: NCI in vitro 60 cell panel, RXF 393; type: cell-based; conditions: Homo sapiens, read-out: Most Senstive Cells Lines mean log10 LC50 (converted)
Description: as §1

[5] = in fetal calf serum; cited from earlier work
[6] = 60 cell, as in Table 3, read-out: Mean GI50
[7] = mean across 60 cell lines, 48 hour drug exposure
[8] = mean across 60 cell lines, 48 hour drug exposure, read-out: mean log10 GI50 (converted)

Q: With `O=C1C=CC(O)(c2cc3ccccc3n2S(=O)(=O)c2ccccc2)C=C1` [SIQ-01, 4-(1-benzenesulfonyl-1H-indol-2-yl)-4-hydroxy-cyclohexa-2,5-dienone] as the compound, how does the GI50 [1, 6] read?
A: 152 nM

Q: What about the LC50 [1, 7] of the same compound?
A: 2950 nM

Q: What about the GI50 [1, 8] of the same compound?
A: 38.9 nM

Q: And the IC50 (HT29 colon carcinoma)?
A: 259 nM

Q: What about the “maximum T/C (Test/Control)” value ([2]; combination with cisplatin: 15 mg/kg i.p. days 1-5 and 8-10, 4 mg cisplatin/kg s.c. days 1 and 8) of the same compound?
A: 49%

Q: And the MTD at 5 days [3]?
A: 30 mg/kg

Q: And the IC50 (HCT 116 colon carcinoma)?
A: 86 nM

Q: And the CC50 (CAKI-1 (renal))?
A: 52.5 nM

Q: What about the CC50 (HCT-116 (colon)) of the same compound?
A: 33.1 nM

Q: Which results are given for `COc1ccc2c(c1)cc(C1(O)C=CC(=O)C=C1)n2S(=O)(=O)c1ccccc1` [SIQ-02, 4-(1-benzenesulfonyl-5-methoxy-1H-indol-2-yl)-4-hydroxy-cyclohexa-2,5-dienone]?
A: LC50 [1, 7]: 6170 nM; GI50 [1, 8]: 135 nM; CC50 (ACHN (renal)): 447 nM; CC50 (LOX IMVI (melanoma)): 468 nM

Q: For `O=C1C=CC(O)(c2cc3cc(F)ccc3n2S(=O)(=O)c2ccccc2)C=C1` [SIQ-03, 4-(1-benzenesulfonyl-5-fluoro-1H-indol-2-yl)-4-hydroxy-cyclohexa-2,5-dienone], which GI50 [1, 6] is on record?
A: 527 nM

Q: And the LC50 [1, 7]?
A: 3240 nM

Q: And the GI50 [1, 8]?
A: 66.1 nM

Q: What about the IC50 (HT29 colon carcinoma) of the same compound?
A: 347 nM

Q: What about the CC50 (LOX IMVI (melanoma)) of the same compound?
A: 63.1 nM

Q: And the IC50 (HCT 116 colon carcinoma)?
A: 68 nM

Q: And the CC50 (HCT-116 (colon))?
A: 50.1 nM

Q: For `Cc1ccc(S(=O)(=O)n2c(C3(O)C=CC(=O)C=C3)cc3ccccc32)cc1` [SIQ-04], which GI50 [1, 6] is on record?
A: < 100 nM

Q: What about the LC50 [1, 7] of the same compound?
A: 7240 nM

Q: And the GI50 [1, 8]?
A: 112 nM

Q: What about the IC50 (HT29 colon carcinoma) of the same compound?
A: 206 nM

Q: And the CC50 (LOX IMVI (melanoma))?
A: 234 nM

Q: What about the IC50 (HCT 116 colon carcinoma) of the same compound?
A: 36 nM

Q: And the IC50 [4]?
A: < 100000 nM

Q: And the CC50 (HCT-116 (colon))?
A: 47.9 nM

Q: With `COc1ccc(S(=O)(=O)n2c(C3(O)C=CC(=O)C=C3)cc3ccccc32)cc1` [SIQ-05] as the compound, how does the LC50 [1, 7] read?
A: 6310 nM

Q: And the GI50 [1, 8]?
A: 162 nM

Q: And the IC50 (HT29 colon carcinoma)?
A: 420 nM

Q: And the CC50 (LOX IMVI (melanoma))?
A: 380 nM

Q: What about the IC50 (HCT 116 colon carcinoma) of the same compound?
A: 203 nM

Q: What about the CC50 (HCT-116 (colon)) of the same compound?
A: 112 nM

Q: For `O=C1C=CC(O)(c2cc3ccccc3n2S(=O)(=O)c2ccc(F)cc2)C=C1` [SIQ-06, 4-[1-(4-fluoro-benzenesulfonyl)-1H-indol-2-yl]-4-hydroxy-cyclohexa-2,5-dienone], which LC50 [1, 7] is on record?
A: 7760 nM

Q: What about the GI50 [1, 8] of the same compound?
A: 234 nM

Q: What about the CC50 (UO-31 (renal)) of the same compound?
A: 631 nM

Q: What about the CC50 (HCT-116 (colon)) of the same compound?
A: 363 nM

Q: Which LC50 [1, 7] does the source give for `O=C1C=CC(O)(c2cc3ccccc3n2S(=O)(=O)c2ccc3ccccc3c2)C=C1` [SIQ-07] here?
A: 5620 nM

Q: And the GI50 [1, 8]?
A: 191 nM

Q: And the IC50 (HT29 colon carcinoma)?
A: 274 nM

Q: What about the CC50 (U251 (CNS cancer)) of the same compound?
A: 513 nM

Q: And the IC50 (HCT 116 colon carcinoma)?
A: 193 nM

Q: And the CC50 (HCT-116 (colon))?
A: 372 nM

Q: With `CC(C)c1cc(C(C)C)c(S(=O)(=O)n2c(C3(O)C=CC(=O)C=C3)cc3ccccc32)c(C(C)C)c1` [SIQ-09] as the compound, how does the LC50 [1, 7] read?
A: 11200 nM

Q: And the GI50 [1, 8]?
A: 427 nM

Q: And the CC50 (RXF 393 (renal))?
A: 776 nM

Q: And the CC50 (HCT-116 (colon))?
A: 550 nM

Q: With `O=C1C=CC(O)(c2cc3ccccc3n2S(=O)(=O)c2ccccc2)c2ccccc21` (stereo not drawn) [SIQ-10, 4-(1-benzenesulfonyl-1H-indol-2-yl)-4-hydroxy4H-naphthalen-1-one] as the compound, how does the LC50 [1, 7] read?
A: 7760 nM

Q: What about the GI50 [1, 8] of the same compound?
A: 447 nM

Q: What about the IC50 (HT29 colon carcinoma) of the same compound?
A: 444 nM

Q: And the CC50 (LOX IMVI (melanoma))?
A: 776 nM

Q: What about the IC50 (HCT 116 colon carcinoma) of the same compound?
A: 205 nM

Q: And the CC50 (HCT-116 (colon))?
A: 794 nM

Q: For `Cc1ccc(S(=O)(=O)n2c(C3(O)C=CC(=O)c4ccccc43)cc3ccccc32)cc1` (stereo not drawn) [SIQ-11, 4-hydroxy 4-[1-(toluene-4-sulfonyl)-1H-indol-2-yl]-4H-naphthalen-1-one], which GI50 [1, 6] is on record?
A: > 1000 nM

Q: What about the LC50 [1, 7] of the same compound?
A: 5620 nM

Q: And the GI50 [1, 8]?
A: 389 nM

Q: And the IC50 (HT29 colon carcinoma)?
A: 391 nM

Q: What about the CC50 (LOX IMVI (melanoma)) of the same compound?
A: 724 nM

Q: And the IC50 (HCT 116 colon carcinoma)?
A: 155 nM

Q: What about the CC50 (HCT-116 (colon)) of the same compound?
A: 490 nM

Q: Which “maximum T/C (Test/Control)” value ([2]; cisplatin alone, 4 mg/kg s.c. days 1 and 8) does the source give for `N.N.[Cl][Pt][Cl]` [cisplatin, reference compound] here?
A: 56%

Q: With `O=CN/C=C/c1cc(O)ccc1O` [erbstatin] as the compound, how does the half-life [5] read?
A: < 30 min
